Measurements from US20130296417A1, “Theaflavin Compositions, Production, and Method to Control Physiological Disorders in Mammals” (JANGSU DEHE BIO-TECH CO., LTD., priority 2010, published 2013).

Tested on: Madin-Darby canine kidney (MDCK) cells
Assay: Cytotoxicity (CC50) in MDCK cells (Example II)

SMILES: O=C(O[C@@H]1Cc2c(O)cc(O)cc2O[C@@H]1c1cc(O)c(O)c(O)c1)c1cc(O)c(O)c(O)c1 [EGCG, (−)-epigallocatechin-3-gallate]
- CC50: >100 µg/mL
